Measured values reported in PMC3259267 (Bioorganic & medicinal chemistry, 2011).

Legend:
[1] = test system: panel of 68 radioligand receptor assays; assay: LeadProfilingScreen radioligand binding panel; details: 10 uM; none positive, mostly <10%
[2] = Plasma concentration and blood brain barrier penetration; details: G93A SOD1 transgenic mice, single ip 50 mg/kg
[3] = Caco-2 monolayer permeability; details: human
ALS = ALS patients, on average; ref [1]; cited from earlier work

With O=C1CC(=O)CC(c2cc(C(F)(F)F)cc(C(F)(F)F)c2)C1 [Compound 26] the “inhibition in all 68 radioligand receptor assays” value [1] was under 20% and the “period of stable plasma concentrations” value [2] was 3 to 12 h.

Compound CC(Oc1cc(C(F)(F)F)cc(C(F)(F)F)c1)C1CC(=O)CC(=O)C1 (stereo not shown) [Compound 73] has a Papp A→B at 2 h, 50 μM [3] of 24.8 ×10⁻⁶ cm/s.

In the case of Nc1nc2ccc(OC(F)(F)F)cc2s1 [riluzole], the extension of life (ALS) is given as 2–3 months.
